Reference: US20130189714A1, “METHOD FOR THE DETECTION AND/OR QUANTIFICATION OF THE INTERACTION OF PLATELETS WITH INTERACTION PARTNERS” (SANOFI, priority 2010, published 2013)
Residues, ends and D or L forms follow the SMILES beside them.

Columns and labels:
[1] = target: T1, interaction of platelets (GPIb) with vWF-A1 domain (Homo sapiens, UniProt P07359); test: platelet adhesion to wells coated with vWF-A1 (calcein-AM labelled platelets, Acumen laser-scanning cytometry); format: cell-based
T1 construct: it is advantageous to use whole platelets instead of the isolated GpIb protein; host or cells: human platelets from platelet concentrate
T1 sequence (P07359 17-652): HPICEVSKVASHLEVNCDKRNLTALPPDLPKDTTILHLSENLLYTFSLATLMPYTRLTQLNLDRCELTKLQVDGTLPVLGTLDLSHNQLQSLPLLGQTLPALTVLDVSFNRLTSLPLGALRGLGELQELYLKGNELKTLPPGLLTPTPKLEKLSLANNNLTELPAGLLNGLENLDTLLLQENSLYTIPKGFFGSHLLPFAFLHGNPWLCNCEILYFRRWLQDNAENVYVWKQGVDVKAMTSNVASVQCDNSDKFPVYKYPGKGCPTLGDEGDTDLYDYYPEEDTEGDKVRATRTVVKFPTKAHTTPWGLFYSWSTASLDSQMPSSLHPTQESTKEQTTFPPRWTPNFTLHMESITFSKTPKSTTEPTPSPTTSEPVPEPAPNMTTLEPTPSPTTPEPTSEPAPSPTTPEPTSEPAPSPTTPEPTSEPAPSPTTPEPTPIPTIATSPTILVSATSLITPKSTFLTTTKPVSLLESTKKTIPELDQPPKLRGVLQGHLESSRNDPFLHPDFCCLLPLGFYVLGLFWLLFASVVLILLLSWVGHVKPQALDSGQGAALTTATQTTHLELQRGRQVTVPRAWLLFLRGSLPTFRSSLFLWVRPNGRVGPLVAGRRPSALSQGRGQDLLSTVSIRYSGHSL
T1 sequence (P13224 26-206 partner): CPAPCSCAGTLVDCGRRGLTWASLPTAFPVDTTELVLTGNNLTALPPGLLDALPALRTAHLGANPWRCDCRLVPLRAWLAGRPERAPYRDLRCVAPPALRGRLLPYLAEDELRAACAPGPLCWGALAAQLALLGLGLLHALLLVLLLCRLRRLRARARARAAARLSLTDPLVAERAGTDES
T1 sequence (P14770 17-177 partner): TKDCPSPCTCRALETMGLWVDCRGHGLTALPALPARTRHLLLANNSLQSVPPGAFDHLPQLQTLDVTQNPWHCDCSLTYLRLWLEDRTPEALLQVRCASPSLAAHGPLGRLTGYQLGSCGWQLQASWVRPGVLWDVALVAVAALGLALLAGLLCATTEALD
Procedure: 25 μl of the TBS-vWF-A1-Coating/Blocking-Puffer 1× (containing 15 μg/ml vWF-A1) is added sterile per well using a Multidrop from Labsystems. Plates were incubated and stored minimally overnight up to one week. Storage is at 4 C, sterile and protected against evaporation.
One hour before test substance addition, the wells of the plates were blocked with BSA. Before the wells were washed with 1×TBS-Washbuffer, 60 μl/Well using an ELx405 Microplate Washer (96 wells) from Biotek.
Immediately after (wells should not dry out) the wells were blocked 5% BSA-Fatty acid free 40 μl/Well using a Multidrop from Labsystems. Wells were incubated 1-2 hours until test substances were added.
Sealed plates delivered from test substance management were stored at −20° C. until use. Test substances were dissolved in 100% DMSO at 3 mM. Test substances were diluted in TBS-Adhaesionbuffer 1× till 10 μM final concentration. Diluted test substance were stored at RT and used within hours. HTS occurred in single-point determination.
Surplus of BSA is washed away by washing the wells with 1×TBS-Washbuffer, 60 μl/Well using an ELx405 Microplate Washer (96 wells) from Biotek, followed by the addition of 10 μl test substance solution or high and low control using Cybio robotics. Plates were not allowed to dry out.
LOW-Control: no vWF-A1-Coating, just BSA-treated plates for blocking HIGH-Control: vWF-A1+ Standard (non-toxic GPIb inhibitor) vWF-A1+ and OS-1 10 μM
The total time needed between removing the platelets from the platelet concentrate, as obtained from the German Red Cross and disoensing the platelets into the multiwall plates should be between 45-60 mins.
The bag containing the platelet concentrate, as obtained from the German Red Cross, is removed from the agitation table (see 1.2; cells) and is put in a sterile flow cabinet on an absorbing towel to absorb any spills. The tubing, tube clamps and scissors are sterilized with 70% ethanol in water.
The tubing from the bag with platelet concentrate is clamped and the tubing is cut. The clamp is released and the first ca. 10 ml concentrate that comes out of the bag is discarded. 30 ml concentrate is poured into n 50 ml BD-Falcon tube made of polypropylene.
Next, 2.5 μl PGE-stock (0.5 mg/ml) is added to an empty 12 ml round-bottom tube made of polypropylene (Greiner). To this 5 ml platelet concentrate is added (final concentration of PGE1 is 0.25 μg/ml) and the tube is gently mixed and incubated 5 min at RT. […]

[2] = tested on: interaction of platelets with collagen 1 (rat tail); test: platelet-collagen 1 interaction assay (counter-screen); format: cell-based, human; details: test substances at 10 μM
Procedure: For this assay essentially the same set up was used as described above for testing the adhesion of platelets onto A1-coated plates.
To coat wells with rat tail collagen1, a stock solution consisting of 200 μg/ml Collagen I (rat tail, SIGMA (C8897)) in 0.01 M acetic acid was prepared. This solution was diluted with 0.01 M acetic acid to 10 μg/ml and 25 μl was added to a 384 well. Plates were incubated overnight at 4 C for binding of collagen1 to the well. One hour before test substance addition, the wells of the plates were blocked with BSA as described above. Also the preparation, labeling and dispension of platelets was as described for vWF-A1. For the platelet adhesion to collagen I, the concentration of MgCl2 was increased to 4 mM and the number of platelets added per well to 50 000 platelets. Using these conditions, the assay was able to detect the interaction of specific inhibitors with good statistical parameters, see FIG. 11.
A set of 6 plates were tested under automated conditions. For all plates a Z′ value above 0.5 was obtained with a S/B of 20 or more.
A training set composed 69 test substances in total was used to validate this assay. […]

## CSCC[C@@H]1NC(=O)[C@H](CCCNC(=N)N)NC(=O)[C@H](CCC(=O)O)NC(=O)[C@H]([C@@H](C)O)NC(=O)[C@@H](N)CSSC[C@@H](C(=O)O)NC(=O)[C@H](CC(C)C)NC(=O)[C@H](CC(N)=O)NC(=O)[C@H](Cc2c[nH]cn2)NC(=O)[C@H](CC(C)C)NC(=O)[C@H](C)NC1=O [OS-1] (HELM PEPTIDE1{C.T.E.R.M.A.L.H.N.L.C}$PEPTIDE1,PEPTIDE1,1:R3-11:R3$$$V2.0; N-terminus and C-terminus assumed)
[1]; OS-1 at 10 μM, optimized washer settings, FIG. 6
  inhibition at 10 µM: ~90%
[1]; all plates of the run, FIG. 9
  inhibition by OS-1 during fully automated run of 30 plates: high inhibition
[1]; optimized washer program, FIG. 6 legend
  inhibition of platelet attachment to vWF-A1 (in words): almost complete inhibition
[1]; prolonged storage at room temperature, FIG. 8
  effect of increasing plate storage times on inhibition: almost constant values
[2]
  inhibition of the platelet interaction with collagen: did not inhibit
